In article PMC11790956, “A microscale thermophoresis-based enzymatic RNA methyltransferase assay enables the discovery of DNMT2 inhibitors” (Communications Chemistry, 2025):
“Also recorded” adds a separate entry of the source.

What was measured:
DNMT2 [1] = target: T1, DNMT2 (Homo sapiens, UniProt O14717); test: DNMT2 enzymatic split aptamer MST assay; assay type: biochemical
T1 construct: made in house
T1 sequence (O14717 1-391): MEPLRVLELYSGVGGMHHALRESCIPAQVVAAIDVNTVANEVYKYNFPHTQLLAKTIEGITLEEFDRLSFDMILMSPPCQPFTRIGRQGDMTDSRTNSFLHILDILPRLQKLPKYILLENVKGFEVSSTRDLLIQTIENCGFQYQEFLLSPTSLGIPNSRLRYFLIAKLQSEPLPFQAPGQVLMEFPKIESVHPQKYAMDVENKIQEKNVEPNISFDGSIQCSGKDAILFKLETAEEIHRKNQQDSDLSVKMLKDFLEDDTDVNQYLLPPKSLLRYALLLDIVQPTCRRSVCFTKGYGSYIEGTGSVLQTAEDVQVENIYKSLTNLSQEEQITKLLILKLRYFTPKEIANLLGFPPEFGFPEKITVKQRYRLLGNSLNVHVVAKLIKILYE
Method: The enzyme kinetics were characterized by calculating the Michaelis-Menten constant (KM or kcat) and inhibitory constants (IC50 resp. KI).
The final drug compound concentration was adjusted to 500 µM for the epigenetic drug library (Fig. 5) resp. 100 µM for the covalent compound library (Fig. 6), and the enzymatic reaction was incubated for 30 min at 25 °C. Subsequently, enzymatic reactions were terminated by the addition of 0.3% SDS, and the product SAH was quantified by the split aptamer MST assay (Figs. 5A, B, 6A).
For MTase assay detection by MST, enzyme reaction mixtures with a total volume of 10 µL per single treatment condition were prepared and incubated for the desired reaction times. Inhibitors were added from corresponding DMSO stocks to a final DMSO concentration of max. 5%. Afterward, reactions were quenched at a given reaction time by the addition of 1 µL sodium dodecyl sulfate (SDS, solution, 3% in water) per 10 µL reaction mixture and mixed well by pipetting. Subsequently, 1 µL of a 10× aptamer-containing detection master mix (200 mM Tris, pH 8.5, 200 mM MgCl2, 3 M NaCl, 10 mM urea, 0.2% Brij, 500 nM aptaSAH1, 500 nM aptaSAH2) was added to the quenched MTase reaction and incubated for 1 h at room temperature. Reaction mixtures were loaded directly to MST capillaries without further purification or sample processing.
MST experiments were carried out in at least technical triplicates using a Monolith NT.115 instrument (NanoTemper Technologies) using Monolith standard capillaries and the blue excitation laser setup. The instrument was calibrated according to the manufacturer’s instructions. General settings were applied for all MST experiments as follows: manual temperature control: 25 °C, fluorescence measurement before MST: 4 s, MST (IR laser) on: 20 s, fluorescence after MST: 2 s, delay: 25 s. The laser power was adjusted to optimize the signal-to-noise ratio and the fluorescence signal. LED and MST power settings were chosen individually for each sample by adjusting the LED power to yield fluorescence signals of at least 300 units (blue laser) or 3000 units (red laser) and the MST power to achieve an appropriate thermophoretic response (standard setting: medium MST power).

METTL3/14 = target: T2, METTL3/14 (Homo sapiens, UniProt Q86U44); test: METTL3/14 enzymatic split aptamer MST assay; assay type: biochemical; settings: 500 µM of hit compound, Fig. 5D
T2 construct: purchased BPS Bioscience BPS-100105
Method: Specifically, we studied the m^6A MTase METTL3/14 and the m^7G MTase S. aureus TrmD.
For MTase assay detection by MST, enzyme reaction mixtures with a total volume of 10 µL per single treatment condition were prepared and incubated for the desired reaction times. Inhibitors were added from corresponding DMSO stocks to a final DMSO concentration of max. […] Afterward, reactions were quenched at a given reaction time by the addition of 1 µL sodium dodecyl sulfate (SDS, solution, 3% in water) per 10 µL reaction mixture and mixed well by pipetting. […]
MST experiments were carried out in at least technical triplicates using a Monolith NT.115 instrument (NanoTemper Technologies) using Monolith standard capillaries and the blue excitation laser setup. […] General settings were applied for all MST experiments as follows: manual temperature control: 25 °C, fluorescence measurement before MST: 4 s, MST (IR laser) on: 20 s, fluorescence after MST: 2 s, delay: 25 s. The laser power was adjusted to optimize the signal-to-noise ratio and the fluorescence signal. LED and MST power settings were chosen individually for each sample by adjusting the LED power to yield fluorescence signals of at least 300 units (blue laser) or 3000 units (red laser) and the MST power to achieve an appropriate thermophoretic response (standard setting: medium MST power). […]

S. aureus TrmD = target: T3, S. aureus TrmD (Staphylococcus aureus, UniProt Q2FZ43); test: S. aureus TrmD enzymatic split aptamer MST assay; assay type: biochemical; settings: 500 µM of hit compound, Fig. 5D
T3 construct: made in house
T3 sequence (Q2FZ43 1-245): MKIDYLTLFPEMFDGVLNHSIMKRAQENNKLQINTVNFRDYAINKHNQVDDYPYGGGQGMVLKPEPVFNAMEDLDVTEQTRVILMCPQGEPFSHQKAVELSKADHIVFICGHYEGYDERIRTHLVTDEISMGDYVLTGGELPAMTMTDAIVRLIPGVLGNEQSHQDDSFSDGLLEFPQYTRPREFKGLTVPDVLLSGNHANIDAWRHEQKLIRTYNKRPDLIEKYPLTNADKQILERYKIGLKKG
Method: DNMT2 & S. aureus TrmD: 100 mM Tris-HCl, pH 8, 100 mM NH4OAc, 0.1 mM EDTA, 10 mM MgCl2, 10 mM DTT. For TrmD: 50 nM TrmD, 2 µM SAM, 1 µM tRNA^Leu.
For MTase assay detection by MST, enzyme reaction mixtures with a total volume of 10 µL per single treatment condition were prepared and incubated for the desired reaction times. Inhibitors were added from corresponding DMSO stocks to a final DMSO concentration of max. 5%. Afterward, reactions were quenched at a given reaction time by the addition of 1 µL sodium dodecyl sulfate (SDS, solution, 3% in water) per 10 µL reaction mixture and mixed well by pipetting. Subsequently, 1 µL of a 10× aptamer-containing detection master mix (200 mM Tris, pH 8.5, 200 mM MgCl2, 3 M NaCl, 10 mM urea, 0.2% Brij, 500 nM aptaSAH1, 500 nM aptaSAH2) was added to the quenched MTase reaction and incubated for 1 h at room temperature. […]
MST experiments were carried out in at least technical triplicates using a Monolith NT.115 instrument (NanoTemper Technologies) using Monolith standard capillaries and the blue excitation laser setup. […] General settings were applied for all MST experiments as follows: manual temperature control: 25 °C, fluorescence measurement before MST: 4 s, MST (IR laser) on: 20 s, fluorescence after MST: 2 s, delay: 25 s. The laser power was adjusted to optimize the signal-to-noise ratio and the fluorescence signal. […]

DNMT2 [2] = target: T1, DNMT2; test: DNMT2 fluorescence polarization (FP) FTAD displacement assay; assay type: binding
Method: Fluorescence polarization assays were conducted with a similar sample composition as described for FTAD-MST assays as described previously. Triplicates (50 µL) were prepared in black 96-well half-area plates (Greiner) and measured using a Spark 10 M plate reader (Tecan) equipped with polarization filters coupled to a monochromator setup (FTAD: λex = 480 nm, λem = 530 nm). Polarization values (in mP) were calculated from polarization-specific parallel and orthogonal fluorescence intensities according to the Tecan in-built calculation routine.
Reversibility of alexidine binding to DNMT2 was evaluated with a modified FP-assay setup. Briefly, reaction mixtures containing alexidine were prepared in black 96-well half-area plates, and after FP measurement, the volume of one well (50 µL) was collected and applied to a Zeba™ Spin Desalting Column (7 K MWCO) while 5 µL of a 10x DNMT2 buffer solution (500 mM HEPES, 1.5 M NaCl, 10 mM dithiothreitol (DTT), 1% PEG-8000, 0.5% polysorbate-20, pH 7.4) was placed in the collection tube attached to the SEC column. This procedure separated alexidine and restored the initial composition of the DNMT2 assay solution.
Kinetic FP assays were performed to assess the time-dependent inactivation of DNMT2 treated with covalent inhibitors. Briefly, samples contained 2 µM DNMT2, 100 nM FTAD probe, and 1.3% DMSO in DNMT2 MST buffer. Inhibitors were added from DMSO stocks. Negative inhibition control was performed by mock treatment with DMSO. Reactions were initiated by the addition of the Cpd 11 (adamantanyl-acryloylurea) and monitored for 120 min at 25 °C in a Tecan Spark 10 M plate reader (FTAD: λex = 480 nm, λem = 530 nm) The irreversible inhibition kinetics were analyzed as described previously[35],[36].

DNMT2-tRNA complex = target: T4, DNMT2-tRNA complex (Homo sapiens, UniProt O14717); test: Electrophoretic mobility shift assay (EMSA) of the DNMT2-tRNA complex; assay type: binding; settings: 500 µM compound, DNMT2 10 µM, tRNAAsp 5 µM
T4 construct: made in house
T4 sequence (O14717 1-391): T1 sequence (O14717 1-391)
Method: We speculated these hits might bind very weakly to the tRNA-DNMT2 interaction site and by this inhibit DNMT2 activity. To test this hypothesis, we performed an electrophoretic mobility shift assay (EMSA) using tRNA^Asp (5 µM) and DNMT2 (10 µM) compared to the tRNA sample in absence of the DNMT2 protein (SI Fig. 4)[33]. […] Subsequently, we treated the DNMT2-tRNA complex with all hit compounds at 500 µM and observed their potential to disrupt the complex.
DNMT2 (10 µM) was mixed with tRNA^Asp (5 µM) and treated with 500 µM of the respective screening hit compound in DNMT2 assay buffer (100 mM Tris-HCl, pH 8, 100 mM NH4OAc, 0.1 mM EDTA, 10 mM MgCl2, 10 mM DTT). Subsequently, reaction samples (each 5 µL) were loaded to a native 10% polyacrylamide gel and separated electrophoretically (1 h, 180 V) in 1x TBE. RNA was stained in situ with 1x GelRed and PAGE analysis was conducted by fluorescence scanning at an excitation wavelength of 532 nm (Amersham Typhoon 9400). Positive control: DNMT2+tRNA (band at high molecular weights); negative control: only tRNA (band at low molecular weights).
SI Figure 4. Electrophore?c mobility shi? assay (EMSA) to inves?gate the inﬂuence of screening hits on the DNMT2-tRNA complex forma?on. D NMT2 (10 µ M ) was mixe d w it h t RNAAsp (5 µM) and treated with 50 0 µM of the respec?ve screening hit compound in DNMT2 assay buﬀer. All reac?on samples (each 5 µL) were loaded to a na?ve 10% polyacr ylamide gel and separated electrophore?cally (1 h, 1 80 V) in 1x TBE. RNA was stained in situ with 1x GelRed and PAGE analysis was conducted by ﬂuorescence scanning at an excita?on wavelength of 532 nm (Amersham Typhoon 9400). Po s i ? ve control: DNMT2+tRNA (band at high molecular weights); nega?ve control: only tRNA (band at low

T2 sequence (Q86U44 2-580 limits assumed): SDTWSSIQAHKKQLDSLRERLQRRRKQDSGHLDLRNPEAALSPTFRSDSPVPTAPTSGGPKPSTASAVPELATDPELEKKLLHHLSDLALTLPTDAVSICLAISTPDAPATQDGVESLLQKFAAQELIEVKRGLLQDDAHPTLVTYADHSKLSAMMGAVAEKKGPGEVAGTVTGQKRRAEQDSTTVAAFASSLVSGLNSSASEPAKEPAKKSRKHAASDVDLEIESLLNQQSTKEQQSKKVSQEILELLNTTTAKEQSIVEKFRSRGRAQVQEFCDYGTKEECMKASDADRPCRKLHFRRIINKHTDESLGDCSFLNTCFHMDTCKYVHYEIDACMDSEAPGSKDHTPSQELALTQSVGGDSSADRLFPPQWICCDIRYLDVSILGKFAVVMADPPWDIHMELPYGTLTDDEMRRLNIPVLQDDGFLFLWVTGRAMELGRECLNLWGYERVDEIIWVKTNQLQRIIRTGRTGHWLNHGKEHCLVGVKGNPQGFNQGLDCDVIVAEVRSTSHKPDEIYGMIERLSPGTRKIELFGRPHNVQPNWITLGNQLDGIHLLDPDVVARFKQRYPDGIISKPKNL
T2 sequence (Q9HCE5 2-456 partner limits assumed): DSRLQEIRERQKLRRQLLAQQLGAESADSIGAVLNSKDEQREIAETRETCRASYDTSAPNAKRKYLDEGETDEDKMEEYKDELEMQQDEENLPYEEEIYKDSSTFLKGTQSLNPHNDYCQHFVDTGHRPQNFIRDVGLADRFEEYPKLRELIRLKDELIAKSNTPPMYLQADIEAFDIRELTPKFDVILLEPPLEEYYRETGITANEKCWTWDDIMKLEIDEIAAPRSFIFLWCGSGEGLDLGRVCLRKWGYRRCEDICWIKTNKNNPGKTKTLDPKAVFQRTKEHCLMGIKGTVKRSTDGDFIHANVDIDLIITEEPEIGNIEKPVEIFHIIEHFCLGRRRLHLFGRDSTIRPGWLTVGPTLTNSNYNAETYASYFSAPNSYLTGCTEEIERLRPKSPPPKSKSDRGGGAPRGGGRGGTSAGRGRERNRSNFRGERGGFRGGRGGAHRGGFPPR

**Q.** Which results are given for `C=CC(=O)NC(=O)NC12CC3CC(CC(C3)C1)C2` [Cpd 11, 1-(adamantan-1-yl)-3-(prop-2-enoyl)urea]?
**A.** inhibition at 100 µM (DNMT2 [1]; 100 µM compound, covalent library, 30 min at 25 °C, read-out: DNMT2 inhibition in primary screening): > 90%; IC50 (DNMT2 [1]; MST-derived, 250 nM DNMT2, 5 µM tRNA, 0.9 µM SAM): 4.1 µM; inhibition of METTL3/14 (selectivity panel) (METTL3/14): did not inhibit; inhibition of TrmD (selectivity panel) (S. aureus TrmD): did not inhibit; displacement of FTAD tracer / binding to SAH-binding site (DNMT2 [2]; FP library screening with FTAD tracer): binding to the SAH-binding site; also recorded: displaced the FP-probe FTAD effectively; time dependence of FTAD displacement (DNMT2 [2]; kinetic FP assay): time-dependent DNMT2 inhibition; also recorded: time-dependent displacement of the FTAD FP-tracer; kinact (DNMT2 [2]; kinetic FP assay, kobs vs. [I], 120 min at 25 °C): 0.00285 s⁻¹; influence on DNMT2-tRNA complex formation (DNMT2-tRNA complex): do not inﬂuence the complex
